Data published in US20150071941A1, “TREATMENT OF ISCHEMIC RETINOPATHIES” (THE JOHNS HOPKINS UNIVERSITY, priority 2012, published 2015).
Entries after “also recorded” stand apart in the source; their conditions may differ.

How the values were obtained:
[1] = test system: human dermal microvascular endothelial cells (HMVECs); experiment: In vitro endothelial cell permeability assay (passage of FITC-dextran through HMVEC monolayer); type: cell-based
Procedure: Permeability Assays. In vitro permeability assay was performed as previously described (48). Briefly, HMVEC were seeded on collagen-coated transwells ([…], PTFE; Corning), and allowed to grow as a 3-d-old mature monolayer. Following overnight starvation, 500 μL and 100 μL of conditioned medium were added for 30 min (37° C.) to the bottom and top chamber, respectively. A total of 100 μL of 1 mg/mL FITC dextran (molecular weight=40,000; Invitrogen) was added for 30 min. Fluorescence was quantified using a SpectraMax M5 Microplate Reader (Molecular Devices) with excitation at 494 nm and emission at 521 nm.

[2] = test system: inner retina vessels; experiment: OIR mouse model: vascular permeability / retinal edema (inner retinal cysts, extravascular albumin); type: in vivo; settings: P13 OIR mice, digoxin 2 mg/kg daily intraperitoneal
Procedure: (§1) Oxygen-Induced Retinopathy (OIR). […] At P12 the mice were returned to room air.
(§2) Quantitation of vascular permeability in the retina was assessed by examining 4 high powered fields of the posterior retina from three animals and counting the number of CD31-labled inner retina vessels in the posterior retina that had visible adjacent extravascular albumin (detected by immunofluorescence) as a percent of the total vessels in each field.
(§3) Immunohistochemistry and Immunofluorescence. Immunohistochemical detection of extravascular albumin (Cedarlane-Nordic) was performed on cryopreserved mouse tissue sections using a nitroblue tetrazolium (NBT) development system using Streptavidin alkaline phosphatase (APase) as previously described (53) Immunohistochemical detection of HIF-1 alpha (Abcam), human and murine ANGPTL4 (Abcam and Lifespan BioSciences, respectively), VEGF (Santa Cuz), CD34 (Covance), and GFAP (Sigma) were performed in paraffin embedded human tissue (obtained from the Wilmer Eye Institute Ocular Pathology Archives with approval from the Johns Hopkins School of Medicine Internal Review Board) and mice cryopreserved tissue using ABC system (Dako) as previously described (4).

[3] = test system: GFAP; experiment: OIR mouse model: GFAP expression in Müller cells; type: in vivo; settings: OIR mice, administration of digoxin
Excerpt: as §1

[4] = test system: Angptl4; experiment: OIR mouse model: RT-PCR of Angptl4 mRNA in neurosensory retina; type: in vivo; settings: OIR mice P12-P14, daily intraperitoneal digoxin
Procedure: as §1
(§4) Quantitative Real-Time RT-PCR. RNA was isolated from culture cells or retinas with RNeasy Mini Kit (Qiagen) and cDNA prepared using MuLV Reverse Transcriptase (Applied Biosystems, Carlsbad, Calif.). Quantitative real-time PCR was performed with Power SYBR Green PCR Master Mix (Applied Biosystems) and MyiQ Real-Time PCR Detection System (Bio Rad). Normalization was done using cyclophilin A for mouse tissue and cell lines and β-actin for human cell lines. Primers for qPCR include: human VEGF, forward—[…] (SEQ ID NO:1) and reverse—[…] (SEQ ID NO:2); human ANGPTL4, forward—[…] (SEQ ID NO:3) and reverse—[…] (SEQ ID NO:4); human β-actin, forward—[…] (SEQ ID NO:5) and reverse—[…](SEQ ID NO:6); mouse VEGF, forward—[…] (SEQ ID NO:7) and reverse—[…](SEQ ID NO:8); mouse ANGPTL4, forward—[…] (SEQ ID NO:9) and reverse—[…] (SEQ ID NO:10); mouse cyclophilin A, forward—[…] (SEQ ID NO:11) and reverse—[…] (SEQ ID NO:12).

[5] = test system: Vegf; experiment: OIR mouse model: RT-PCR of Vegf mRNA in neurosensory retina; type: in vivo; settings: OIR mice P12-P14, daily intraperitoneal digoxin
Procedure: as §1, §4

[6] = test system: VEGF; experiment: MIO-M1 Müller cells: VEGF mRNA (RT-PCR) and secreted protein (ELISA); type: cell-based, human; settings: digoxin 100 nM, 2 hours prior to hypoxia; 8 hours hypoxia
Procedure: (§5) Cell Culture and Reagents. MIO-M1 cells were a generous gift from Astrid Limb (University College London Institute of Ophthalmology). Isolation of primary Müller cells was performed as previously described (51). Primary human dermal microvascular endothelial cells (HMVEC) were obtained from Lonza and cultured according the manufacter's protocols. Recombinant ANGPTL4 and VEGF, and ANGPTL4 and VEGF ELISA kits were obtained from R&D Systems. The KDR inhibitor, SU1498, and rapamycin were obtained from Calbiochem. Digoxin was obtained from Sigma. Predesigned control (Scrambled) and ANGPTL4 and HIF-1β siRNA sequences were obtained from Qiagen. AdLacZ and AdCAS have been previously described (26).
(§6) Quantitative Real-Time RT-PCR. RNA was isolated from culture cells or retinas with RNeasy Mini Kit (Qiagen) and cDNA prepared using MuLV Reverse Transcriptase (Applied Biosystems, Carlsbad, Calif.). Quantitative real-time PCR was performed with Power SYBR Green PCR Master Mix (Applied Biosystems) and MyiQ Real-Time PCR Detection System (Bio Rad). Normalization was done using cyclophilin A for mouse tissue and cell lines and β-actin for human cell lines. Primers for qPCR include: human VEGF, forward—[…] (SEQ ID NO:1) and reverse—[…] (SEQ ID NO:2); human ANGPTL4, forward—[…] (SEQ ID NO:3) and reverse—[…] (SEQ ID NO:4); human β-actin, forward—[…] […]

[7] = test system: ANGPTL4; experiment: MIO-M1 Müller cells: ANGPTL4 mRNA (RT-PCR) and protein (Western blot/ELISA); type: cell-based, human; settings: digoxin pretreatment (100 ng as printed), 2 hours prior hypoxia
Procedure: as §5, §6

[8] = test system: mouse ear vasculature; experiment: Modified Miles assay, vascular permeability in the mouse ear; type: in vivo; settings: intradermal injection of ANGPTL4 0.2 μg vs PBS
Procedure: In vivo permeability was assessed using a modified Miles assay as previously described (48). Briefly, Evan Blue dye was injected into mouse tail veins (200 μL of 12 mg/ml solution in PBS). After 5 minutes, animals were anesthetized using Tribromoethanol. 20 ul 0.2 ug VEGF or 0.2 ug ANGPTL4 was injected intradermally into the right ear (PBS was injected into left ear as a control). After 8 minutes, photographs were taken. Levels of Evans blue dye was then extracted from mouse ear in 1 mL of formamide at 55° C. for 16 hours and dye content quantified at 610 nm using a spectrophotometer (48).

[9] = test system: angiogenesis; experiment: Promotion of angiogenesis / NV in vitro and in vivo (Example 9, cornea pocket assay)
Excerpt: Cell Culture: ARPE19, human ES derived RPE cells, primary murine RPE cells. Rat: Subretinal lipid hydroperoxide CNV Model. Assays used included Cornea pocket assay, Western Blot and RT-PCR, and Immunohistochemistry and Immunofluorescence. Patient Samples: ELISA analysis of ANGPTL4 levels in aqueous humor.

[10] = test system: inner retina vessels; experiment: Intravitreal injection of recombinant protein into the mouse eye: retinal vascular permeability; type: in vivo
Procedure: […]. Intraocular injections with 1 μl of rmVEGF or rmANGPTL4 (200 ng/ul) were performed with a nanofil syringe (World Precision Instruments) using a 36G beveled needle. Intraocular injections with 1 μl of AdLacZ or AdCAS (2×10^12 VP/mL) were performed with pulled-glass micropipettes and a Harvard pump microinjection apparatus as previously described (52).
as §2, §3

VEGF
endothelial cell permeability ([1]; VEGF 100 ng): promotes endothelial cell permeability

C[C@H]1O[C@@H](O[C@H]2[C@@H](O)C[C@H](O[C@H]3[C@@H](O)C[C@H](O[C@H]4CC[C@@]5(C)[C@H](CC[C@@H]6[C@@H]5C[C@@H](O)[C@]5(C)[C@@H](C7=CC(=O)OC7)CC[C@]65O)C4)O[C@@H]3C)O[C@@H]2C)C[C@H](O)[C@@H]1O [digoxin]
vascular permeability (inner retinal cysts, extravasated albumin) [2]: decrease in vascular permeability; also recorded: inhibits the increase in inner retinal cysts and extravasated albumin | GFAP expression [3]: not affected | induction of Angptl4 mRNA [4]: completely abolished the induction of Angptl4 | induction of Vegf mRNA [5]: only partially inhibited the induction of Vegf | VEGF mRNA expression and protein secretion [6]: inhibited VEGF mRNA expression and protein secretion; also recorded: inhibits | ANGPTL4 RNA and protein induced by hypoxia [7]: inhibited | endothelial cell permeability promoted by conditioned media from hypoxic MIO-M1 cells ([1]; MIO-M1 pre-treated with 100 nM digoxin 2 hours prior to 8 hour hypoxia): potently blocked the property of the conditioned media to promote an increase in endothelial cell permeability; also recorded: inhibits the promotion of endothelial cell permeability by hypoxic MIO-M1 cells

CC(C)c1cc(/C=C(\C#N)C(=O)NCCCc2ccccc2)cc(C(C)C)c1O [SU1498]
endothelial cell permeability promoted by 100 ng recombinant human VEGF ([1]; SU1498 5 μM pre-treatment of endothelial cells): completely blocked the induction of endothelial cell permeability; also recorded: abolishes the promotion of endothelial cell permeability by 100 ng of recombinant human VEGF | endothelial cell permeability promoted by conditioned media from hypoxic MIO-M1 cells ([1]; SU1498 5 μM pre-treatment of endothelial cells, 8 hours hypoxia): only a partial inhibition of endothelial cell permeability; also recorded: only partially blocks the promotion of endothelial cell permeability

B1: ANGPTL4: Recombinant angiopoietin-like 4 protein obtained from R&D Systems (protein, UniProt Q9BY76 26-406, looked up)
Angiopoietin-related protein 4: GPVQSKSPRFASWDEMNVLAHGLLQLGQGLREHAERTRSQLSALERRLSACGSACQGTEGSTDLPLAPESRVDPEVLHSLQTQLKAQNSRIQQLFHKVAQQQRHLEKQHLRIQHLQSQFGLLDHKHLDHEVAKPARRKRLPEMAQPVDPAHNVSRLHRLPRDCQELFQVGERQSGLFEIQPQGSPPFLVNCKMTSDGGWTVIQRRHDGSVDFNRPWEAYKAGFGDPHGEFWLGLEKVHSITGDRNSRLAVQLRDWDGNAELLQFSVHLGGEDTAYSLQLTAPVAGQLGATTVPPSGLSVPFSTWDQDHDLRRDKNCAKSLSGGWWFGTCSHSNLNGQYFRSIPQQRQKLKKGIFWKTWRGRYYPLQATTMLIQPMAAEAAS
endothelial cell permeability ([1]; recombinant human ANGPTL4 2.5 or 5 μg): potently induced endothelial cell permeability | endothelial cell permeability ([1]; recombinant human ANGPTL4 2.5 or 5 μg, listed as recombinant human ANGPTL4): promotes endothelial cell permeability | vascular permeability (Evans blue dye, 610 nm) [8]: remarkable increase in vascular permeability; also recorded: marked increase in dye | promotion of angiogenesis [9]: promoted angiogenesis both in vitro and in vivo

B2: rmANGPTL4: recombinant murine ANGPTL4 injected intravitreally (protein, UniProt Q9Z1P8 24-410, looked up)
Angiopoietin-related protein 4: QGRPAQPEPPRFASWDEMNLLAHGLLQLGHGLREHVERTRGQLGALERRMAACGNACQGPKGKDAPFKDSEDRVPEGQTPETLQSLQTQLKAQNSKIQQLFQKVAQQQRYLSKQNLRIQNLQSQIDLLAPTHLDNGVDKTSRGKRLPKMTQLIGLTPNATHLHRPPRDCQELFQEGERHSGLFQIQPLGSPPFLVNCEMTSDGGWTVIQRRLNGSVDFNQSWEAYKDGFGDPQGEFWLGLEKMHSITGNRGSQLAVQLQDWDGNAKLLQFPIHLGGEDTAYSLQLTEPTANELGATNVSPNGLSLPFSTWDQDHDLRGDLNCAKSLSGGWWFGTCSHSNLNGQYFHSIPRQRQERKKGIFWKTWKGRYYPLQATTLLIQPMEATAAS
inner retinal cysts (H & E) ([10]; 200 ng rmANGPTL4 intravitreal vs PBS): increased inner retinal cysts | extravasation of albumin (immunohistochemistry) ([10]; 200 ng rmANGPTL4 intravitreal vs control): extravasation of albumin | vascular permeability (leakage of plasma and albumin) ([10]; rmANGPTL4 intravitreal, retinas after 48 hours): marked and statistically significant increase in vascular permeability
